Legend:
[1] = biological activity of separated enantiomers / diastereomers (test not specified); conditions: enantiomers compared by order of elution; test and target not stated

Compound | Biological activity of separated enantiomers [1] | melting point
O=CN(O)[C@@H](CCc1ncccn1)CS(=O)(=O)N1CCN(c2ccc(Cl)cn2)CC1 [Example 6 2nd enantiomer eluted, N-[(1S)-1-({[4-(5-chloropyridin-2-yl)piperazino]sulfonyl}methyl)-3-(pyrimidin-2-yl)propyl]-N-hydroxyformamide] | Biological activity lies in the compound eluted second from the column | 
O=CN(O)[C@@H](CCCc1ncccn1)CS(=O)(=O)N1CCN(c2ccc(Cl)cn2)CC1 [Example 4, N-[(1S)-1-({[4-(5-chloropyridin-2-yl)piperazino]sulfonyl}methyl)-4-(pyrimidin-2-yl)butyl]-N-hydroxyformamide] |  | 124.5 to 126.5 °C
O=CN(O)C(CCc1ncc(F)cn1)CS(=O)(=O)N1CCN(c2ccc(Cl)cn2)CC1 (stereo not drawn) [Example 2, N-[1-([4-(5-chloropyridin-2-yl)piperazino]sulfonylmethyl)-3-(5-fluoropyrimidin-2-yl)propyl]-N-hydroxyformamide] |  | 154 to 155 °C
